Key:
CYP3A4 = target: T1, CYP3A4 (Homo sapiens, UniProt P08684); assay: Cytochrome P450 assay (Gentest Kit), CYP3A4; format: in vitro ADME; settings: human recombinant isoenzyme, Table 1
T1 construct: purchased Gentest
Procedure: (§1) Inhibition of the five most important Cytochrome P450 isoforms (CYP1A2, CYP2C9, CYP2C19, CYP2D6 and CYP3A4), involved in drug metabolism, was measured using specific substrates that become fluorescent upon CYP metabolism (Gentest Kit assay).
(§2) Compounds were tested in a 96-well plate containing incubation/NADPH regenerating buffer. Specific human recombinant isoenzymes and substrates were added and incubated at 37° C. for 15 minutes for CYP1A2/CEC, […], 45 minutes for CYP2C9/MFC and 30 minutes for the others CYP450.
benzylphenylcoumarin (CYP3A4)

CYP2C9 = target: T2, CYP2C9 (Homo sapiens, UniProt P11712); assay: Cytochrome P450 assay (Gentest Kit), CYP2C9; format: in vitro ADME; settings: human recombinant isoenzyme
T2 construct: purchased Gentest
Procedure: as §1, §2
7-methoxy-4-trifluoromethylcoumarin (CYP2C9),

CYP2C19 = target: T3, CYP2C19 (Homo sapiens, UniProt P33261); assay: Cytochrome P450 assay (Gentest Kit), CYP2C19; format: in vitro ADME; settings: human recombinant isoenzyme
T3 construct: purchased Gentest
Procedure: as §1, §2
(§3) The specific substrates were the following: 3-cyano-7-ethoxycoumarin (CYP2C19 and CYP1A2),

[1] = Cytotoxicity assay in human neuroblastoma cell line SH-SY-5Y; format: cell-based; settings: SH-SY-5Y neuroblastoma cells, 24 hours incubation, Alamar Blue, concentration inducing 50% of mortality
Procedure: Cytotoxicity Assay in Human Neuroblastoma Cell Line SH-SY-5Y
At time zero, the cells were seeded at 1.10^4/cm^2 in 96 well plates in DMEM growth medium+10% heat inactivated FBS+2 mM 1-Glutamine+100 U/mL-100 μg/mL Penicillin/Streptomycin.
After 72 hours at subconfluent phase of growth, the medium was removed and cells were incubated for 24 hours at 37° C. in 180 μl of neurobasal medium+2 mM 1-Glutamine (Life Technologies) with or without test compounds (20 μl, at least 5 concentrations in triplicate).
At the end of incubation, 20 μl of Alamar Blue dye (AlamarBlue™ Assay Kit, Promega) were directly added to the cell medium.
Four hours after, the cytotoxicity was assessed by measuring the fluorescence at 530 nm excitation and 595 nm emission using Tecan Spectrafluor plate reader.
Before and at the end of the treatment, the cultures were monitored microscopically by an Olympus IX70 inverted light microscope matched to an Image Analyzer (Image Pro Plus, 5.1) to evaluate the cellular morphology.
Results are expressed in Table 1 as concentration inducing 50% of mortality.

CYP1A2 = target: T4, CYP1A2 (Homo sapiens, UniProt P05177); assay: Cytochrome P450 assay (Gentest Kit), CYP1A2; format: in vitro ADME; settings: human recombinant isoenzyme
T4 construct: purchased Gentest
T4 sequence (P05177 1-516): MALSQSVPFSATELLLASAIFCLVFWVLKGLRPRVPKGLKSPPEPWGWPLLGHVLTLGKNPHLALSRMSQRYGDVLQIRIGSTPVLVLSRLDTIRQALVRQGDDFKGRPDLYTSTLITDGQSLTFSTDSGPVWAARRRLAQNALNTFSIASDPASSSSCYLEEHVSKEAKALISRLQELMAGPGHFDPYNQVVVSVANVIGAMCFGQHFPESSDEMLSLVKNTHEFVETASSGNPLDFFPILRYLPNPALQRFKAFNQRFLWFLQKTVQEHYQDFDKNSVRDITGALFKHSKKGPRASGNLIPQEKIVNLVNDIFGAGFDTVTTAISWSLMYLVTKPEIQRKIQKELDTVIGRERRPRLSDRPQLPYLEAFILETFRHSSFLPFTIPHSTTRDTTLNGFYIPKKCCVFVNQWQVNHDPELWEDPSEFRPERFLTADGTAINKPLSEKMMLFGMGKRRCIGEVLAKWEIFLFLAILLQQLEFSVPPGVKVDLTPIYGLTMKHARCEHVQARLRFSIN
Procedure: as §1, §2, §3

HERG channel = HERG channel (Homo sapiens, UniProt Q12809); assay: HERG current in transfected CHO cell lines
Procedure: The inhibition of HERG current was tested in CHO cells stably expressing recombinant HERG channel.
To evaluate the effect of the test compounds on HERG currents, cells were clamped at −80 Mv, depolarised to 0 mV for 5 seconds allowing activation of HERG current and repolarised to −50 mV during 5 seconds allowing HERG tail current to deactivate. This procedure was repeated at a frequency of 0.06 Hz. The current amplitude upon repolarisation (HERG tail current) was measured before and after exposure to the test compound.
Inhibition of current was calculated as the difference between the amplitude of HERG tail current amplitude measured at the end of external bath perfusion period and HERG tail current measured at the end of test compound perfusion period (when steady-state effect is reached) divided by control HERG tail current.
Drug concentration-inhibition curves were obtained by plotting tonic blocks versus drug concentrations. Dose-response curves were fitted to the tonic block data, according to the logistic equation: y=A2+(A1−A2)/[1+(x/IC50)^p].

CYP2D6 = target: T5, CYP2D6 (Homo sapiens, UniProt P10635); assay: Cytochrome P450 assay (Gentest Kit), CYP2D6; format: in vitro ADME; settings: human recombinant isoenzyme
T5 construct: purchased Gentest
Procedure: as §1, §2
3[2(N,N-diethyl-N-mwthylamino) ethyl]-7-methoxy-4-methylcoumarin (CYP2D6)

mice [2] = assay: Maximal Electroshock Test (MES) in mice; format: in vivo
Procedure: Maximal Electroshock Test (MES) in Mice
The maximal electroshock test (MES) is used commonly in the screening of anti-epileptic drugs in rodent models.
Animals and Apparatus: Male CD1 mice weighing 25 g were used. […] The stimulus was delivered intra-aurally through clip electrodes in mice (0.7 seconds of a 40 mA shock, with a pulse train of 80 Hz having a pulse duration of 0.4 ms). The acute effect of compounds administered intraperitoneally or orally 15-60 minutes before MES induction were examined and compared with a vehicle control group. Ten mice were studied per group. Complete suppression of the hindlimb tonic extensor component of seizures was taken as evidence of anticonvulsant activity.
The compounds of the invention were administered orally or intraperitoneally at the doses of 3-30 mg/kg.
The results are expressed in Tables 3 and 4 as % of protection.

mice [3] = assay: Amphetamine plus chlordiazepoxide-induced hyperlocomotion in mice; format: in vivo
Procedure: FIG. 1 provides total locomotor activity over 30 min. Mice were treated with ralfinamide (10; 30 and 60 mg/kg, po); or saline and returned to their home cage. After 30 min they received an injection of Amph (2.5 mg/kg; ip); Amph/CDP mixture (2.5 and 3.125 mg/kg; ip) or saline immediately prior to be placed in the test cage. Locomotor activity was recorded for 30 min.
Amphetamine Plus Chlordiazepoxide-Induced Hyperlocomotion in Mice
The anti mania activity, predictive of efficacy in bipolar disorders, was measured using the “Amphetamine plus chlordiazepoxide-induced hyperlocomotion in mice” model according to the following procedure.
In this model, mice are treated with a mixture of d-amphetamine plus an anxiolytic dose of the benzodiazepine, chlordiazepoxide (Rushton R and Steinberg H. Nature 1966; 211: 1312-3; R. Arban, et al. Behavioural Brain Research, 158: 123-132). The model has been claimed to mimic some aspects of mania in bipolar disorder. Importantly, the hyperactivity induced by the mixture of d-amphetamine and chlordiazepoxide could be prevented by prior administration of the established mood stabilizer, lithium, as well as other mood stabilizers drugs (e.g. magnesium valproate and carbamazepine). Therefore, this model has face and predictive validity as a model of bipolar disorders and represents a valuable tool to determine, if a test compound could be a potential mood stabilizer drug candidate.
D-amphetamine (Amph) (2.5 mg/kg ip) plus chlordiazepoxide hydrochloride (CDP) (3 mg/kg ip) were administered to male Albino Swiss mice (25-32 g) in a volume of 10 ml/kg. The locomotor activity was recorded using an automated Activity Cage LE 881 (Panlab) (45×45 cm). This system detects animal movements from 2 levels of 4 side infrared sensors placed all around the square cage. Mice were pretreated with the test compound (0.5-60 mg/kg po) and 30 min later, with Amph (2.5 mg/kg ip) or Amph jointly with CDP (3 mg/kg ip) and were placed individually in the motor activity cages. The locomotor activity was measured in terms of total distance travelled (cm) over a period of 30 min. Each group consisted of 8-10 mice.
Statistical analysis: a two-way analysis of variance (ANOVA) with Amph treatment factor and drug treatment factor was performed. Bonferroni's procedure was used for multiple comparison post hoc analysis.
D-amphetamine-chlordiazepoxide administration induced a significant increase in locomotor activity.

T5 sequence (P10635 whole entry): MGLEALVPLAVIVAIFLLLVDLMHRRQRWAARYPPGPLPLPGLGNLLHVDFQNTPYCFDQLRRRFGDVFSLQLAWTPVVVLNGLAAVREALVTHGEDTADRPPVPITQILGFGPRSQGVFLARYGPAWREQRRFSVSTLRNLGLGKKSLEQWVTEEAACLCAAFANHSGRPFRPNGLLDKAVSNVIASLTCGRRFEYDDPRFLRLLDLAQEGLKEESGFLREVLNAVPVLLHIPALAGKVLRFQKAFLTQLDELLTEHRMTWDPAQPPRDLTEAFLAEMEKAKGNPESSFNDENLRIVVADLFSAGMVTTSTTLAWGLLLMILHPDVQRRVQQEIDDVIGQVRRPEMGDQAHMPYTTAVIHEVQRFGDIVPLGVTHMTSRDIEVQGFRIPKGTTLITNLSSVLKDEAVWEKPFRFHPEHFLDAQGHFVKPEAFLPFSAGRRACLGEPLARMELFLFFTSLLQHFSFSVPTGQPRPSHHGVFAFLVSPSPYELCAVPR
T2 sequence (P11712 whole entry): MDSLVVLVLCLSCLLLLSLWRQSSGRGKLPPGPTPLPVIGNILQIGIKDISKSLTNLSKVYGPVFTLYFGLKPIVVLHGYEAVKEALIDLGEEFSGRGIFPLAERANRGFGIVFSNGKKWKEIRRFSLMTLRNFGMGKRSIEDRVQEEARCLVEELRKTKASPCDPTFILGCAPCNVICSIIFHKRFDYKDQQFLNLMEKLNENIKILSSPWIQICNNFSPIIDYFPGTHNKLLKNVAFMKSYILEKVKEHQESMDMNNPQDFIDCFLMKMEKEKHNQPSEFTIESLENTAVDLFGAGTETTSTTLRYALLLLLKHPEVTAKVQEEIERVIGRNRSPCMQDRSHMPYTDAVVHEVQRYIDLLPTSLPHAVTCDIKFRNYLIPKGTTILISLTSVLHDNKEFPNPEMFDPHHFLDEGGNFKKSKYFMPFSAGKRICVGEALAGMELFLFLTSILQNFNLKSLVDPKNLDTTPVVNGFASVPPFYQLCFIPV
Chain of HERG channel (Q12809 whole entry): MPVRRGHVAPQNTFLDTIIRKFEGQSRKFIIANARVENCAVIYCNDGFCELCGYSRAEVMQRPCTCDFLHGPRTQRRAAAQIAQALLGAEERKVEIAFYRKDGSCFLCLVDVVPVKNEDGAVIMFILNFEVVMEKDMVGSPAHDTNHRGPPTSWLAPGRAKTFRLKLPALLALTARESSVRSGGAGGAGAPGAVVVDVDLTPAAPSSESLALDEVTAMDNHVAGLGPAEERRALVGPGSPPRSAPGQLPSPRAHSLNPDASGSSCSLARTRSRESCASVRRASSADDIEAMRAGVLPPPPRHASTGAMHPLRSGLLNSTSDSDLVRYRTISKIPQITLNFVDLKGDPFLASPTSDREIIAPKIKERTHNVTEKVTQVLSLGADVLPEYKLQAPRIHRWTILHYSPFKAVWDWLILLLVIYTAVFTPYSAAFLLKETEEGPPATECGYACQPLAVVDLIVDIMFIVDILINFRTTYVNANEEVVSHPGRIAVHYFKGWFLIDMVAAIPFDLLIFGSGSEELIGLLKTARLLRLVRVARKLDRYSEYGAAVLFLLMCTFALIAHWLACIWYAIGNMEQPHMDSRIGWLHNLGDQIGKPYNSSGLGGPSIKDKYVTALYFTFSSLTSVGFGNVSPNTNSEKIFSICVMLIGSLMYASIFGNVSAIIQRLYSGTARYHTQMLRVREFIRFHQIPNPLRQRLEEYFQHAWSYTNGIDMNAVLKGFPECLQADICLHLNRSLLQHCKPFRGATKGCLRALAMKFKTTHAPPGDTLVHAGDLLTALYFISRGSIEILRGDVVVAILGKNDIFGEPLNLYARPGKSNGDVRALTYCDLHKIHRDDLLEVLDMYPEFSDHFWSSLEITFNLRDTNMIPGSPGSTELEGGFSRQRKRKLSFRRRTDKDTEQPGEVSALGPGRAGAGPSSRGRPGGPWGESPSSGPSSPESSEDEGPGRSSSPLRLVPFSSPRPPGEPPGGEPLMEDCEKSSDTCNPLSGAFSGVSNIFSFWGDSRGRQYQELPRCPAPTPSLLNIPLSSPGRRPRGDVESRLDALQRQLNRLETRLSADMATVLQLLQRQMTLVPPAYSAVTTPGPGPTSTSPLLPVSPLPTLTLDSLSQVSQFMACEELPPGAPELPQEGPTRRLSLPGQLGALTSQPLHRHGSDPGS
T3 sequence (P33261 whole entry): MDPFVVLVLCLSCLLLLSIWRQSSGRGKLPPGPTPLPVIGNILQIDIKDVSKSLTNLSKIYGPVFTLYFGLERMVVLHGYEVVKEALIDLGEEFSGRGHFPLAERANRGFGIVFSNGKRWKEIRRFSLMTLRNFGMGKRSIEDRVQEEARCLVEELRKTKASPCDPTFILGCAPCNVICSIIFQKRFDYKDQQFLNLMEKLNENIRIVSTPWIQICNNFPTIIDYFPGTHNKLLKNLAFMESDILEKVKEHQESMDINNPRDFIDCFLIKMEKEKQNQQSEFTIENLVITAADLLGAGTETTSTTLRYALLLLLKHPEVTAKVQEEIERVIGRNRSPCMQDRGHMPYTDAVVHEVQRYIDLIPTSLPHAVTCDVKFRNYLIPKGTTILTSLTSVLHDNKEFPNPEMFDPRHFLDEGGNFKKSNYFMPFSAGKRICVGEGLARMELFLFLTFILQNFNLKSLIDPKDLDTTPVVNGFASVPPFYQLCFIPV
T1 sequence (P08684 whole entry): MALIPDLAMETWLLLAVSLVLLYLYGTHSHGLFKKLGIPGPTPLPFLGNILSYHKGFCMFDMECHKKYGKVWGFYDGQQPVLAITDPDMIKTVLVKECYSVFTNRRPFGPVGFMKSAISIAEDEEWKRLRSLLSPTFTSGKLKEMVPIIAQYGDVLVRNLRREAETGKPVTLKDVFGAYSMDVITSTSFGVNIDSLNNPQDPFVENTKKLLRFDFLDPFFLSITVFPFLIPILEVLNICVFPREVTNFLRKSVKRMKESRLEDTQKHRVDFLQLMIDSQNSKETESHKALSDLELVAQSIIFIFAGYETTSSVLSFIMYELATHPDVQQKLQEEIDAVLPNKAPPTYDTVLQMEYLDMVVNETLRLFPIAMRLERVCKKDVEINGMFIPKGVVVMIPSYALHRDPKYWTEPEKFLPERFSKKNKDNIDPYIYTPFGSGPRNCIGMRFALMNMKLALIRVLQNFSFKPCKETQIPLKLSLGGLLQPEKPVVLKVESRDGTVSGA

Compound	IC50 (CYP3A4)	IC50 (CYP2C9)	IC50 (CYP2C19)	IC50 at 24 h [1]	IC50 (CYP1A2)	IC50 (HERG channel)	IC50 (CYP2D6)	MES % protection (mice [2]; mice, 3 mg/kg ip)	MES % protection (mice [2]; mice, 10 mg/kg ip)	MES % protection (mice [2]; mice, 30 mg/kg ip)	MES Protection % (mice [2]; mice, 10 mg/kg p.o.)	MES (head blank; protection) (mice [2]; mice, 20 mg/kg p.o.)	further results
C[C@H](NCc1ccc(OCc2cccc(F)c2)c(Cc2cccc(F)c2)c1)C(N)=O [Impurity IIc, (S)-2-[3-(3-fluorobenzyl)-4-(3-fluorobenzyloxy)-benzylamino]propanamide methanesulfonate]	0.05 µM	7.29 µM	0.42 µM	6.7 µM	> 40 µM	1.2 µM	0.77 µM	0%	0%	0%	–	–	MES dead/live (mice [2]; mice, 3 mg/kg ip): 5/10; MES dead/live (mice [2]; mice, 10 mg/kg ip): 4/10; MES dead/live (mice [2]; mice, 30 mg/kg ip): 4/10; pharmacological activity, i.e. protection from convulsions, in MES test (mice [2]; mice, ip, from 3 mg/kg): without any pharmacological activity; mortality in the mice MES test (mice [2]; starting from 3 mg/kg ip): increases
C[C@H](NCc1ccc(OCc2ccccc2F)c(Cc2ccccc2F)c1)C(N)=O [Impurity IId, (S)-2-[3-(2-fluorobenzyl)-4-(2-fluorobenzyloxy)-benzylamino]propanamide methanesulfonate]	0.05 µM	8.01 µM	1.89 µM	15 µM	> 40 µM	2.66 µM	0.92 µM	–	–	–	0%	0%	MES dead/live (mice [2]; mice, 10 mg/kg p.o.): 0/10; MES dead/live (mice [2]; mice, 20 mg/kg p.o.): 0/10; protection from convulsions in MES test (mice [2]; mice, p.o. at 10 and 20 mg/kg): doesn't protect
CS(=O)(=O)O.C[C@H](NCc1ccc(OCc2ccccc2F)cc1)C(N)=O [Ralfinamide methanesulfonate, (S)-2-[4-(2-fluorobenzyloxy)benzylamino]propanamide methanesulfonate]	–	> 40 µM	> 40 µM	> 300 µM	> 40 µM	18 µM	> 40 µM	–	–	–	60%	90%	–
CS(=O)(=O)O.C[C@H](NCc1ccc(OCc2cccc(F)c2)cc1)C(N)=O [Safinamide methanesulfonate, (S)-2-[4-(3-fluorobenzyloxy)benzylamino]propanamide methanesulfonate]	–	> 40 µM	23.9 µM	248 µM	> 40 µM	27 µM	> 40 µM	50%	100%	100%	–	–	–
C[C@H](NCc1ccc(OCc2ccccc2F)cc1)C(N)=O [ralfinamide, (S)-2-[4-(2-fluorobenzyloxy)-benzylamino]propanamide]	–	–	–	–	–	–	–	–	–	–	–	–	total locomotor activity over 30 min, Bonferroni versus Amph/CDP mixture (mice [3]; 30 mg/kg po): statistical difference; total locomotor activity over 30 min, Bonferroni versus Amph alone (mice [3]; 60 mg/kg po): statistical difference; total locomotor activity over 30 min, Bonferroni versus Amph/CDP mixture (mice [3]; 60 mg/kg po): statistical difference; hyperactivity induced by Amph/CDP mixture (locomotor activity) (mice [3]; orally administered, 30 min before Amph/CDP ip): significantly decreasing the hyperactivity

From patent US8278485B2, “Process for the production of 2-[4-(3- and 2-fluorobenzyloxy) benzylamino] propanamides” (Newron Pharmaceuticals S.p.A., priority 2006, dated 2012)
